Results as given in ChEMBL document CHEMBL1201861, “Genomics of Drug Sensitity in Cancer screening data, Wellcome Trust Sanger Institute”.

Key:
Experiment in all cases: cells
[1] = tested on: TE-5; type: functional, cell-based, Homo sapiens; conditions: Homo sapiens, TE-5;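 note: inhibition of cell growth, read out by a cell viability assay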
Description: SANGER: Inhibition of human TE-5 cell growth in a cell viability assay.

[2] = tested on: ES5; type: functional, cell-based, Homo sapiens; conditions: Homo sapiens, ES5;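 note: growth inhibition of human ES5 cells, read out by a cell viability assay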
Description: SANGER: Inhibition of human ES5 cell growth in a cell viability assay.

[3] = tested on: NCI-H1651; type: functional, cell-based, Homo sapiens; conditions: Homo sapiens, NCI-H1651;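 note: Read-out is a cell viability assay, with IC50 expressing inhibition of NCI-H1651 cell growth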
Description: SANGER: Inhibition of human NCI-H1651 cell growth in a cell viability assay.

[4] = tested on: NB7; type: functional, cell-based; conditions: Homo sapiens;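 note: growth inhibition of NB7 cells, read out with a cell viability assay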
Description: SANGER: Inhibition of human NB7 cell growth in a cell viability assay.

[5] = tested on: JVM-3; type: functional, cell-based; conditions: Homo sapiens;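 note: growth inhibition of human JVM-3 cells, read out with a cell viability assay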
Description: SANGER: Inhibition of human JVM-3 cell growth in a cell viability assay.

[6] = tested on: SNU-387; type: functional, cell-based, Homo sapiens; conditions: Homo sapiens, SNU-387
Description: SANGER: Inhibition of human SNU-387 cell growth in a cell viability assay.

[7] = tested on: DB; type: functional, cell-based; conditions: Homo sapiens
Description: SANGER: Inhibition of human DB cell growth in a cell viability assay.

[8] = tested on: TE-9; type: functional, cell-based, Homo sapiens; conditions: Homo sapiens, TE-9;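 note: cell growth inhibition, measured with a cell viability readout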
Description: SANGER: Inhibition of human TE-9 cell growth in a cell viability assay.

[9] = tested on: NB17; type: functional, cell-based; conditions: Homo sapiens;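 note: growth inhibition of NB17 cells, read out with a cell viability assay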
Description: SANGER: Inhibition of human NB17 cell growth in a cell viability assay.

[10] = tested on: ATN-1; type: functional, cell-based; conditions: Homo sapiens;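 note: growth inhibition of human ATN-1 cells, read out with a cell viability assay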
Description: SANGER: Inhibition of human ATN-1 cell growth in a cell viability assay.

[11] = tested on: VMRC-RCZ; type: functional, cell-based; conditions: Homo sapiens;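 note: growth inhibition measured with a cell viability assay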
Description: SANGER: Inhibition of human VMRC-RCZ cell growth in a cell viability assay.

[12] = tested on: CAL-72; type: functional, cell-based, Homo sapiens; conditions: Homo sapiens, CAL-72;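 note: cell viability assay measuring inhibition of proliferation in the CAL-72 cell line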
Description: SANGER: Inhibition of human CAL-72 cell growth in a cell viability assay.

[13] = tested on: LS-513; type: functional, cell-based, Homo sapiens; conditions: Homo sapiens, LS-513
Description: SANGER: Inhibition of human LS-513 cell growth in a cell viability assay.

[14] = tested on: NCI-H2342; type: functional, cell-based; conditions: Homo sapiens;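 note: growth inhibition of the cancer cell line, determined with a cell viability assay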
Description: SANGER: Inhibition of human NCI-H2342 cell growth in a cell viability assay.

[15] = tested on: NY; type: functional, cell-based, Homo sapiens; conditions: Homo sapiens, NY
Description: SANGER: Inhibition of human NY cell growth in a cell viability assay.

[16] = tested on: KY821; type: functional, cell-based; conditions: Homo sapiens;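 note: growth inhibition of human KY821 cells, read out by a cell viability assay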
Description: SANGER: Inhibition of human KY821 cell growth in a cell viability assay.

[17] = tested on: OCI-AML2; type: functional, cell-based; conditions: Homo sapiens;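 note: growth inhibition of OCI-AML2 cells, read out with a cell viability assay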
Description: SANGER: Inhibition of human OCI-AML2 cell growth in a cell viability assay.

[18] = tested on: KYSE-450; type: functional, cell-based; conditions: Homo sapiens;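 note: cell growth inhibition measured by a viability assay in human KYSE-450 cells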
Description: SANGER: Inhibition of human KYSE-450 cell growth in a cell viability assay.

[19] = tested on: LS-411N; type: functional, cell-based, Homo sapiens; conditions: Homo sapiens, LS-411N
[20] = tested on: FaDu; type: functional, cell-based, Homo sapiens; conditions: Homo sapiens, FaDu;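 note: cell viability readout of growth inhibition in FaDu cells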
Description: SANGER: Inhibition of human FADU cell growth in a cell viability assay.

[21] = tested on: DU-145; type: functional, cell-based, Homo sapiens; conditions: Homo sapiens, DU-145
Description: SANGER: Inhibition of human DU-145 cell growth in a cell viability assay.

[22] = tested on: TK-10; type: functional, cell-based, Homo sapiens; conditions: Homo sapiens, TK-10;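 note: growth inhibition of TK-10 cells, read out in a cell viability assay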
Description: SANGER: Inhibition of human TK10 cell growth in a cell viability assay.

[23] = tested on: HCC1187; type: functional, cell-based, Homo sapiens; conditions: Homo sapiens, HCC1187;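 note: growth inhibition of HCC1187 cells, read out with a cell viability assay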
Description: SANGER: Inhibition of human HCC1187 cell growth in a cell viability assay.

[24] = tested on: NOMO-1; type: functional, cell-based; conditions: Homo sapiens;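 note: growth inhibition of human NOMO-1 cells measured by a cell viability assay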
Description: SANGER: Inhibition of human NOMO-1 cell growth in a cell viability assay.

[25] = tested on: L-428; type: functional, cell-based; conditions: Homo sapiens
Description: SANGER: Inhibition of human L-428 cell growth in a cell viability assay.

[26] = tested on: UACC-257; type: functional, cell-based, Homo sapiens; conditions: Homo sapiens, UACC-257
Description: SANGER: Inhibition of human UACC-257 cell growth in a cell viability assay.

[27] = tested on: EW-11; type: functional, cell-based, Homo sapiens; conditions: Homo sapiens, EW-11;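 note: growth inhibition of human EW-11 cells, measured with a cell viability assay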
Description: SANGER: Inhibition of human EW-11 cell growth in a cell viability assay.

[28] = tested on: UMUC3; type: functional, cell-based, Homo sapiens; conditions: Homo sapiens, UMUC3;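 note: growth inhibition of human UM-UC-3 cells, read out with a cell viability assay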
Description: SANGER: Inhibition of human UM-UC-3 cell growth in a cell viability assay.

[29] = tested on: ASPC1; type: functional, cell-based, Homo sapiens; conditions: Homo sapiens, ASPC1;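 note: growth inhibition of AsPC-1 cells, read out with a cell viability assay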
Description: SANGER: Inhibition of human AsPC-1 cell growth in a cell viability assay.

[30] = tested on: BB30-HNC; type: functional, cell-based, Homo sapiens; conditions: Homo sapiens, BB30-HNC;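 note: growth inhibition of the cultured cell line, read out by a cell viability assay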
Description: SANGER: Inhibition of human BB30-HNC cell growth in a cell viability assay.

[31] = tested on: NCI-H1993; type: functional, cell-based, Homo sapiens; conditions: Homo sapiens, NCI-H1993;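 note: growth inhibition of the cancer cell line, assessed with a cell viability assay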
Description: SANGER: Inhibition of human NCI-H1993 cell growth in a cell viability assay.

[32] = tested on: MHH-PREB-1; type: functional, cell-based; conditions: Homo sapiens;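 note: cell viability assay measuring inhibition of proliferation of human MHH-PREB-1 cells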
Description: SANGER: Inhibition of human MHH-PREB-1 cell growth in a cell viability assay.

[33] = tested on: MEL-HO; type: functional, cell-based, Homo sapiens; conditions: Homo sapiens, MEL-HO
Description: SANGER: Inhibition of human MEL-HO cell growth in a cell viability assay.

[34] = tested on: NCI-H810; type: functional, cell-based, Homo sapiens; conditions: Homo sapiens, NCI-H810;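 note: IC50 reflects inhibition of cancer cell line growth, read out with a cell viability assay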
Description: SANGER: Inhibition of human NCI-H810 cell growth in a cell viability assay.

[35] = tested on: PSN1; type: functional, cell-based, Homo sapiens; conditions: Homo sapiens, PSN1;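 note: suppression of growth of human PSN1 cells, read out by a cell viability assay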
Description: SANGER: Inhibition of human PSN1 cell growth in a cell viability assay.

[36] = tested on: COLO-800; type: functional, cell-based, Homo sapiens; conditions: Homo sapiens, COLO-800;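 note: growth inhibition of COLO-800 cells, read out with a cell viability assay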
Description: SANGER: Inhibition of human COLO-800 cell growth in a cell viability assay.

[37] = tested on: EFO-27; type: functional, cell-based, Homo sapiens; conditions: Homo sapiens, EFO-27;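 note: growth inhibition of EFO-27 cells, read out with a cell viability assay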
Description: SANGER: Inhibition of human EFO-27 cell growth in a cell viability assay.

[38] = tested on: NCI-H1770; type: functional, cell-based; conditions: Homo sapiens;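 note: growth inhibition of NCI-H1770 cells determined with a viability readout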
Description: SANGER: Inhibition of human NCI-H1770 cell growth in a cell viability assay.

[39] = tested on: K562; type: functional, cell-based; conditions: Homo sapiens
Description: SANGER: Inhibition of human K-562 cell growth in a cell viability assay.

[40] = tested on: MZ7-mel; type: functional, cell-based, Homo sapiens; conditions: Homo sapiens, MZ7-mel;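 note: growth inhibition of human MZ7-mel cells, measured by a cell viability assay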
Description: SANGER: Inhibition of human MZ7-mel cell growth in a cell viability assay.

[41] = tested on: HuO-3N1; type: functional, cell-based, Homo sapiens; conditions: Homo sapiens, HuO-3N1;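 note: cell viability readout used to measure how strongly compounds suppress proliferation of human HuO-3N1 cells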
Description: SANGER: Inhibition of human HuO-3N1 cell growth in a cell viability assay.

[42] = tested on: RPMI-2650; type: functional, cell-based, Homo sapiens; conditions: Homo sapiens, RPMI-2650
Description: SANGER: Inhibition of human RPMI-2650 cell growth in a cell viability assay.

[43] = tested on: SAOS-2; type: functional, cell-based, Homo sapiens; conditions: Homo sapiens, SAOS-2;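 note: growth inhibition of human Saos-2 cells determined by a cell viability assay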
Description: SANGER: Inhibition of human Saos-2 cell growth in a cell viability assay.

[44] = tested on: RVH-421; type: functional, cell-based, Homo sapiens; conditions: Homo sapiens, RVH-421
Description: SANGER: Inhibition of human RVH-421 cell growth in a cell viability assay.

[45] = tested on: NCI-H1648; type: functional, cell-based, Homo sapiens; conditions: Homo sapiens, NCI-H1648;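 note: cell viability assay measuring inhibition of NCI-H1648 cell growth, from the Sanger screening data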
Description: SANGER: Inhibition of human NCI-H1648 cell growth in a cell viability assay.

[46] = tested on: HDLM-2; type: functional, cell-based; conditions: Homo sapiens;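 note: cell viability assay measuring suppression of HDLM-2 proliferation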
Description: SANGER: Inhibition of human HDLM-2 cell growth in a cell viability assay.

[47] = tested on: DJM-1; type: functional, cell-based, Homo sapiens; conditions: Homo sapiens, DJM-1;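 note: growth inhibition of human DJM-1 cells, read out by a cell viability assay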
Description: SANGER: Inhibition of human DJM-1 cell growth in a cell viability assay.

[48] = tested on: UACC-62; type: functional, cell-based, Homo sapiens; conditions: Homo sapiens, UACC-62;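 note: growth inhibition of human UACC-62 cells, read out by a cell viability assay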
Description: SANGER: Inhibition of human UACC-62 cell growth in a cell viability assay.

[49] = tested on: COLO-824; type: functional, cell-based, Homo sapiens; conditions: Homo sapiens, COLO-824
Description: SANGER: Inhibition of human COLO-824 cell growth in a cell viability assay.

[50] = tested on: LNCaP-Clone-FGC; type: functional, cell-based, Homo sapiens; conditions: Homo sapiens, LNCaP-Clone-FGC
Description: SANGER: Inhibition of human LNCaP-Clone-FGC cell growth in a cell viability assay.

[51] = tested on: HH; type: functional, cell-based; conditions: Homo sapiens
Description: SANGER: Inhibition of human HH cell growth in a cell viability assay.

[52] = tested on: OVCAR-8; type: functional, cell-based, Homo sapiens; conditions: Homo sapiens, OVCAR-8;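 note: growth inhibition of human OVCAR-8 cells, read out by a cell viability assay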
Description: SANGER: Inhibition of human OVCAR-8 cell growth in a cell viability assay.

`COc1cc(F)c(F)c(Nc2ccc(I)cc2F)c1NS(=O)(=O)C1(CC(O)CO)CC1` (centres undefined) was tested, and the IC50 [1] was 4520 nM, the IC50 [2] was over 5000 nM and the IC50 [3] was over 5 µM. It also gave an IC50 [4] of 4.71 µM, an IC50 [5] of 4380 nM and an IC50 [6] of 2420 nM. The IC50 [7] was over 5000 nM, the IC50 [8] was over 5 µM and the IC50 [9] was over 5 µM. For the same compound, the IC50 [10] was over 5000 nM, the IC50 [11] was over 5000 nM and the IC50 [12] was over 5 µM. For the same compound, the IC50 [13] was 414 nM, the IC50 [14] was over 5 µM and the IC50 [15] was over 5 µM. It also gave an IC50 [16] of 107 nM, an IC50 [17] of over 5 µM and an IC50 [18] of over 5000 nM. It also gave an IC50 [19] of 403 nM, an IC50 [20] of over 5 µM and an IC50 [21] of 1060 nM. For the same compound, the IC50 [22] was 2210 nM, the IC50 [23] was over 5 µM and the IC50 [24] was 137 nM. It also gave an IC50 [25] of over 5 µM, an IC50 [26] of 66.7 nM and an IC50 [27] of over 5000 nM. It also gave an IC50 [28] of over 5000 nM, an IC50 [29] of 1070 nM and an IC50 [30] of 1580 nM. It also gave an IC50 [31] of over 5 µM, an IC50 [32] of over 5000 nM and an IC50 [33] of 39.4 nM. It also gave an IC50 [34] of over 5 µM, an IC50 [35] of 198 nM and an IC50 [36] of over 5000 nM. It also gave an IC50 [37] of 962 nM, an IC50 [38] of over 5000 nM and an IC50 [39] of over 5 µM. The IC50 [40] was 375 nM, the IC50 [41] was over 5000 nM and the IC50 [42] was over 5000 nM. It also gave an IC50 [43] of over 5000 nM, an IC50 [44] of 33.5 nM and an IC50 [45] of over 5000 nM. It also gave an IC50 [46] of over 5000 nM, an IC50 [47] of over 5000 nM and an IC50 [48] of over 5 µM. For the same compound, the IC50 [49] was over 5 µM, the IC50 [50] was over 5000 nM and the IC50 [51] was over 5000 nM. For the same compound, the IC50 [52] was over 5 µM.
With `COc1ccc(-c2ccc3c(N4CCOC[C@@H]4C)nc(N4CCOC[C@@H]4C)nc3n2)cc1CO` [AZD-8055] the IC50 [1] was 684 nM, the IC50 [2] was 93.5 nM and the IC50 [3] was over 2 µM. The IC50 [4] was over 2 µM, the IC50 [5] was 463 nM and the IC50 [6] was 1520 nM. For the same compound, the IC50 [7] was 500 nM, the IC50 [8] was over 2 µM and the IC50 [9] was over 2 µM. For the same compound, the IC50 [10] was 706 nM, the IC50 [11] was 785 nM and the IC50 [12] was over 2 µM. It also gave an IC50 [13] of over 2000 nM, an IC50 [14] of over 2 µM and an IC50 [15] of over 2 µM. For the same compound, the IC50 [16] was 1570 nM, the IC50 [17] was over 2 µM and the IC50 [18] was 827 nM. For the same compound, the IC50 [19] was 1150 nM, the IC50 [20] was over 2 µM and the IC50 [21] was over 2000 nM. For the same compound, the IC50 [22] was 1360 nM, the IC50 [23] was over 2 µM and the IC50 [24] was over 2000 nM. The IC50 [25] was over 2 µM, the IC50 [26] was over 2000 nM and the IC50 [27] was 1620 nM. For the same compound, the IC50 [28] was 1480 nM, the IC50 [29] was 738 nM and the IC50 [30] was 1860 nM. The IC50 [31] was over 2 µM, the IC50 [32] was 747 nM and the IC50 [33] was 678 nM. The IC50 [34] was over 2 µM, the IC50 [35] was 771 nM and the IC50 [36] was 698 nM. The IC50 [37] was 680 nM, the IC50 [38] was 802 nM and the IC50 [39] was over 2 µM. The IC50 [40] was over 2000 nM, the IC50 [41] was 384 nM and the IC50 [42] was 1680 nM. The IC50 [43] was 1820 nM, the IC50 [44] was 636 nM and the IC50 [45] was 702 nM. The IC50 [46] was 1210 nM, the IC50 [47] was 1620 nM and the IC50 [48] was over 2 µM. For the same compound, the IC50 [49] was over 2 µM, the IC50 [50] was 353 nM and the IC50 [51] was 80.1 nM. For the same compound, the IC50 [52] was over 2 µM.
